Key:
COLO 205 [1] = experiment: Antiproliferative activity against human COLO 205 cells assessed as reduction in cell viability for 72 hrs by cell titre glo luminescence assay; assay type: functional, cell-based
[2] = target: Mitogen-activated protein kinase 1 (Homo sapiens, UniProt P28482); experiment: Inhibition of ERK2 (unknown origin) measured after 2 hr by ADP-glo assay
Cytochrome P450 3A4 = Cytochrome P450 3A4 (Homo sapiens, UniProt P08684); experiment: Inhibition of CYP3A4 in human liver microsomes
Cytochrome P450 2D6 = Cytochrome P450 2D6 (Homo sapiens, UniProt P10635); experiment: Inhibition of CYP2D6 in human liver microsomes
Cytochrome P450 2C19 = Cytochrome P450 2C19 (Homo sapiens, UniProt P33261); experiment: Inhibition of CYP2C19 in human liver microsomes
Cytochrome P450 2C9 = Cytochrome P450 2C9 (Homo sapiens, UniProt P11712); experiment: Inhibition of CYP2C9 in human liver microsomes
Cytochrome P450 1A2 = target: T1, Cytochrome P450 1A2 (Homo sapiens, UniProt P05177); experiment: Inhibition of CYP1A2 in human liver microsomes
T1 sequence (P05177 whole entry): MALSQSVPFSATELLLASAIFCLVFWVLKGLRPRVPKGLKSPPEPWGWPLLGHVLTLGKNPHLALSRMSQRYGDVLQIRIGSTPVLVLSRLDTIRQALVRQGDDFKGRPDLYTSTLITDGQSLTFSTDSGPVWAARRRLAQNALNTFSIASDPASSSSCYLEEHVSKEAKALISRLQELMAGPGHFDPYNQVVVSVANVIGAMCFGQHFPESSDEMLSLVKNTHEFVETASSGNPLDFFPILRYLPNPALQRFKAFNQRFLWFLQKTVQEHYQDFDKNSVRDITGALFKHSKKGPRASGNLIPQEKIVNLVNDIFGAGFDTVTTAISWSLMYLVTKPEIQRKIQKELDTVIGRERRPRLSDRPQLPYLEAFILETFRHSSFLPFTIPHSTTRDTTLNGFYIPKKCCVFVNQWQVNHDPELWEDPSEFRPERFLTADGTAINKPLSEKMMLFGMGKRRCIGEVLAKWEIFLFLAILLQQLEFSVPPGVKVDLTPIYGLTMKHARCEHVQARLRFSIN

[3] = Cmax in Beagle dog plasma at 0.5 mg/kg, iv and measured after 24 hrs by LC/MS/MS analysis; assay type: ADME, organism-based, Canis lupus familiaris; design: route intravenous, time 24 hrs, dose 0.5 mg/kg
[4] = Clearance in ICR mouse plasma at 1 mg/kg, iv and measured after 24 hrs by LC/MS/MS analysis mg/kg, iv; assay type: ADME, organism-based
[5] = AUC (0 to t) in Beagle dog at 2 mg/kg, po; assay type: ADME, organism-based, Canis lupus familiaris; design: dose 2 mg/kg; conditions: in vivo
[6] = Cmax in tumor of BALB/c mouse xenografted with human COLO 205 cells at 25 mg/kg, po for 14 days; assay type: ADME, organism-based, Neoplasm; design: route oral, dose 25 mg/kg, time 14 day
[7] = AUC in plasma of BALB/c mouse xenografted with human COLO 205 cells at 25 mg/kg, po for 14 days; assay type: ADME, organism-based; design: time 14 day, dose 25 mg/kg
[8] = Oral bioavailability in ICR mouse at 2 mg/kg; assay type: ADME, organism-based; conditions: in vivo
[9] = Clearance in Beagle dog plasma at 0.5 mg/kg, iv and measured after 24 hrs by LC/MS/MS analysis; assay type: ADME, organism-based, Canis lupus familiaris
[10] = target: Cyclin-dependent kinase 2 (Homo sapiens, UniProt P24941); experiment: Inhibition of CDK2 (unknown origin)
[11] = AUC (0 to t) in ICR mouse at 2 mg/kg, po; assay type: ADME, organism-based; design: dose 2 mg/kg; conditions: in vivo
[12] = Half life in Sprague-Dawley rat at 2 mg/kg, po; conditions: in vivo
[13] = Oral bioavailability in Sprague-Dawley rat at 2 mg/kg; assay type: ADME, organism-based; conditions: in vivo
in vivo = conditions: BALB/c, mouse, tumour, po, 25 mg/kg
Description: Ratio of AUC in tumor to plasma of BALB/c mouse xenografted with human COLO 205 cells at 25 mg/kg, po for 14 days

[14] = AUC in tumor of BALB/c mouse xenografted with human COLO 205 cells at 25 mg/kg, po for 14 days; assay type: ADME, organism-based, Neoplasm; design: time 14 day, dose 25 mg/kg
[15] = Cmax in plasma of BALB/c mouse xenografted with human COLO 205 cells at 25 mg/kg, po for 14 days; assay type: ADME, organism-based; design: route oral, dose 25 mg/kg, time 14 day
[16] = Half life in Beagle dog at 2 mg/kg, po; conditions: in vivo
[17] = AUC (0 to t) in Sprague-Dawley rat at 2 mg/kg, po; assay type: ADME, organism-based; design: dose 2 mg/kg; conditions: in vivo
COLO 205 [18] = experiment: Antitumor activity against human COLO 205 cells xenografted in BALB/c nude mouse assessed as TGI at 25 mg/kg, po measured after 14 days; assay type: functional; conditions: COLO 205, po, 336 h, time 14 day, read-out: TGI
[19] = Clearance in Sprague-Dawley rat plasma at 1 mg/kg, iv and measured after 24 hrs by LC/MS/MS analysis; assay type: ADME, organism-based
[20] = Oral bioavailability in Beagle dog at 2 mg/kg; assay type: ADME, organism-based, Canis lupus familiaris; conditions: in vivo
[21] = Cmax in Sprague-Dawley rat plasma at 1 mg/kg, iv and measured after 24 hrs by LC/MS/MS analysis; assay type: ADME, organism-based; design: route intravenous, dose 1 mg/kg, time 24 hrs
[22] = target: Glycogen synthase kinase-3 beta (Homo sapiens, UniProt P49841); experiment: Inhibition of GSK3beta (unknown origin)
[23] = Plasma protein binding in human; assay type: ADME, cell-free; conditions: read-out: PPB (converted)
[24] = Ratio of AUC in tumor to plasma of BALB/c mouse xenografted with human COLO 205 cells at 50 mg/kg, po for 14 days; assay type: ADME, organism-based; conditions: tumor and plasma, time 14 day, read-out: Ratio AUC
COLO 205 [25] = experiment: Antitumor activity against human COLO 205 cells xenografted in BALB/c nude mouse assessed as TGI at 50 mg/kg, po measured after 14 days; assay type: functional; conditions: COLO 205, po, 336 h, time 14 day, read-out: TGI
[26] = Cmax in plasma of BALB/c mouse xenografted with human COLO 205 cells at 50 mg/kg, po for 14 days; assay type: ADME, organism-based; design: route oral, dose 50 mg/kg, time 14 day
[27] = AUC in tumor of BALB/c mouse xenografted with human COLO 205 cells at 50 mg/kg, po for 14 days; assay type: ADME, organism-based, Neoplasm; design: dose 50 mg/kg, time 14 day
[28] = AUC in plasma of BALB/c mouse xenografted with human COLO 205 cells at 50 mg/kg, po for 14 days; assay type: ADME, organism-based; design: time 14 day, dose 50 mg/kg
[29] = Cmax in tumor of BALB/c mouse xenografted with human COLO 205 cells at 50 mg/kg, po for 14 days; assay type: ADME, organism-based, Neoplasm; design: route oral, dose 50 mg/kg, time 14 day
[30] = Half life in ICR mouse at 2 mg/kg, po; conditions: in vivo
[31] = Cmax in ICR mouse plasma at 1 mg/kg, iv and measured after 24 hrs by LC/MS/MS analysis; assay type: ADME, organism-based; design: route intravenous, dose 1 mg/kg, time 24 hrs
[32] = Homo sapiens, COLO 205, 72 h, read-out: IC50

Chain of Mitogen-activated protein kinase 1 (P28482 whole entry): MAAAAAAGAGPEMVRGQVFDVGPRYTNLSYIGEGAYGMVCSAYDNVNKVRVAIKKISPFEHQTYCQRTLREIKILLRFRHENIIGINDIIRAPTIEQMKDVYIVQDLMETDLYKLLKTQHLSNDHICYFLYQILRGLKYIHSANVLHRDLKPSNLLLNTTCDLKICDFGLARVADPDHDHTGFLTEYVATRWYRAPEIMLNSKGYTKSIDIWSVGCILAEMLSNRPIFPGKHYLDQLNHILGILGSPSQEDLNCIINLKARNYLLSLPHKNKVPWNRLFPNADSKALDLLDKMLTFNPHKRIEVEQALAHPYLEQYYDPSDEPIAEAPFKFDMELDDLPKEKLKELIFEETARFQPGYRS
Chain of Cytochrome P450 2C19 (P33261 whole entry): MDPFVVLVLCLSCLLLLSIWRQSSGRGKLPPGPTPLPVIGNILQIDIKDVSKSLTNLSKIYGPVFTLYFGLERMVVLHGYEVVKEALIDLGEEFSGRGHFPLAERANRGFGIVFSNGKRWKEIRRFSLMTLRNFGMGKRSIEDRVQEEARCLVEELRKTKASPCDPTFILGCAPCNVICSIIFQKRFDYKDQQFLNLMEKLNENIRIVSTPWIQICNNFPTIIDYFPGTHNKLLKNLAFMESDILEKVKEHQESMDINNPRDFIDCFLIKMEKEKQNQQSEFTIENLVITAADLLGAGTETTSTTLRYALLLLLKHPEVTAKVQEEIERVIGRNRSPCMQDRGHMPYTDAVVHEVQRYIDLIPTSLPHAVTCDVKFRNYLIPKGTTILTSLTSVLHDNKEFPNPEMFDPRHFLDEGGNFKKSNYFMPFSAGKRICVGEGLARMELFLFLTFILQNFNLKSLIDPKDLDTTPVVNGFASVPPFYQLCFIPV
Chain of Cytochrome P450 2D6 (P10635 whole entry): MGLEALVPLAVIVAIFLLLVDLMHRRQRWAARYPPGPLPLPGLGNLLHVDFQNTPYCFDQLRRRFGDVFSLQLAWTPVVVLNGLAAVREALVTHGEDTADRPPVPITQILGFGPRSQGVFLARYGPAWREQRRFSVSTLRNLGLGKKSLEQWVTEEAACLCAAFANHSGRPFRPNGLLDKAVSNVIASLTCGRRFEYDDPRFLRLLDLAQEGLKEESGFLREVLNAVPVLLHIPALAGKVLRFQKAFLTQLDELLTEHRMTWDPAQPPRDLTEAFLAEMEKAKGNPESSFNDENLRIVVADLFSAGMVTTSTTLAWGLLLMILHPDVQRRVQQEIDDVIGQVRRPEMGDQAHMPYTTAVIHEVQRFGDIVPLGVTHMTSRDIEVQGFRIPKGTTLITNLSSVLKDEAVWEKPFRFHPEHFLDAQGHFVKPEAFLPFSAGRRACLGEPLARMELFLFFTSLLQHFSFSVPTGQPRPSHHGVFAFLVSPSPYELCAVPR
Chain of Cytochrome P450 2C9 (P11712 whole entry): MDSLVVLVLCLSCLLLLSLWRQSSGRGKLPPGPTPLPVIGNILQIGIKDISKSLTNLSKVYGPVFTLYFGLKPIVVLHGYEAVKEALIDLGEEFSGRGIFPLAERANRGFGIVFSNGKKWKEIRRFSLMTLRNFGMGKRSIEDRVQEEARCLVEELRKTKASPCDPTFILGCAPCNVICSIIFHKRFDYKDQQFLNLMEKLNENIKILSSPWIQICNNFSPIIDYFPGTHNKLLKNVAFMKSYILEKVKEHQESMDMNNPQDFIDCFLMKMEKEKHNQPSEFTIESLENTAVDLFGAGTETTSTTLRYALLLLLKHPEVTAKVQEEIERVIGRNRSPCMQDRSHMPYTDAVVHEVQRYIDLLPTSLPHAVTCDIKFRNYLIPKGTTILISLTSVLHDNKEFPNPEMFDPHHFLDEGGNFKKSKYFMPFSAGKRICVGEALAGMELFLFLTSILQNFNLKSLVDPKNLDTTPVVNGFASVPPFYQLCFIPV
Chain of Glycogen synthase kinase-3 beta (P49841 whole entry): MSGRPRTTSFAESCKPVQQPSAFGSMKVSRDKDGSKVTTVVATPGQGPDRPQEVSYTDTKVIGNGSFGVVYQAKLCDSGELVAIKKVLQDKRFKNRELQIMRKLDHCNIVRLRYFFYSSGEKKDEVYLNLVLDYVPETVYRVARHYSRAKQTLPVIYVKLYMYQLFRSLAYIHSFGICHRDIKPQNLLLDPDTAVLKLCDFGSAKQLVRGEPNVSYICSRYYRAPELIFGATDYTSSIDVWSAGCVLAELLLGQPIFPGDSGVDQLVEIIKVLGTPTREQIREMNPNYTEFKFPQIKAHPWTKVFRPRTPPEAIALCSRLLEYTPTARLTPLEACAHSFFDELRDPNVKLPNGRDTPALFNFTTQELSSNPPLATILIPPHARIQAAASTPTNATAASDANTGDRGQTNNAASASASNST
Chain of Cytochrome P450 3A4 (P08684 whole entry): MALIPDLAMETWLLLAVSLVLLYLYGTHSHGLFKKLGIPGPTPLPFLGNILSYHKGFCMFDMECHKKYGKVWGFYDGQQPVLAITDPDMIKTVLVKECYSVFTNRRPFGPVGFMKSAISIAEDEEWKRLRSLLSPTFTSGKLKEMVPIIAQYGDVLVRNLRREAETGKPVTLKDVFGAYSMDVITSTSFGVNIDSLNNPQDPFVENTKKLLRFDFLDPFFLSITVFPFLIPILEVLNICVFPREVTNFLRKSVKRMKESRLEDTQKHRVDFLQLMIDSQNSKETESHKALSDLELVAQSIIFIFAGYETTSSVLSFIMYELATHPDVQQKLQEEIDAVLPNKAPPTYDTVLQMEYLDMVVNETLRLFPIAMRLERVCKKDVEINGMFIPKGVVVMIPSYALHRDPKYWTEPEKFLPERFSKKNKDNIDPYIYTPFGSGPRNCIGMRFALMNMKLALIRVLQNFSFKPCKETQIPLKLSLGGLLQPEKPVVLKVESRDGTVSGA

Cn1nccc1Nc1nccc(-c2cn3c(n2)CN([C@H](CO)c2cccc(Cl)c2)C3=O)n1
IC50 (COLO 205 [1]; colo 205): Not Active
IC50 [2]: 4.2 µM

Cc1cnc(Nc2ccnn2C)nc1-c1cc2n(c1)C(=O)N([C@H](C)c1cccc(Cl)c1)C2
IC50 (COLO 205 [1]; colo 205): Not Active

Cn1nccc1Nc1nccc(N2CC[C@H](C(=O)N[C@H](CO)c3cccc(Cl)c3)C2)n1
IC50 (COLO 205 [1]; [32]): > 10 µM
IC50 [2]: 0.201 µM

Cc1cnc(Nc2ccnn2C)nc1-c1ccc2c(c1)CN([C@H](CO)c1cccc(Cl)c1)C2=O
IC50 (COLO 205 [1]; colo 205): Not Active
IC50 [2]: 4.83 µM

CC(C)Nc1cc(-c2cc3n(c2)C(=O)N([C@H](CO)c2cccc(Cl)c2)C3)c(Cl)cn1
IC50 (COLO 205 [1]; colo 205): Not Active
IC50 [2]: 0.237 µM

Cc1cnc(Nc2ccnn2C)nc1-c1cn2c(c1F)CN([C@H](CO)c1cccc(Cl)c1)C2=O
IC50 (COLO 205 [1]; colo 205): Not Active
IC50 [2]: 0.13 µM

O=C1N([C@H](CO)c2cccc(Cl)c2)Cc2cc(-c3nc(NC4CCOCC4)ncc3Cl)cn21
IC50 (COLO 205 [1]; [32]): 0.104 µM
IC50 [2]: 0.0058 µM

Cc1cnc(Nc2ccnn2C)nc1-c1cc2n(c1)C(=O)N([C@H](CN)c1cccc(Cl)c1)C2
IC50 (COLO 205 [1]; colo 205): Not Active
IC50 [2]: 0.0183 µM

Cn1nccc1Nc1ncc(Cl)c(-c2cc3n(c2)C(=O)N([C@H](CO)c2cccc(Cl)c2)C3)n1
IC50 (COLO 205 [1]; [32]): 0.0319 µM
IC50 (Cytochrome P450 3A4): > 5 µM
IC50 (Cytochrome P450 2D6): 0.35 µM
IC50 (Cytochrome P450 2C19): > 5 µM
IC50 (Cytochrome P450 2C9): > 5 µM
IC50 (Cytochrome P450 1A2): > 5 µM

C[C@@H](CO)Nc1ncc(Cl)c(-c2cc3n(c2)C(=O)N([C@H](CO)c2cccc(Cl)c2)C3)n1
IC50 (COLO 205 [1]; [32]): 0.081 µM

Cc1cnc(Nc2ccnn2C)nc1N1Cc2cn(C(CO)c3cccc(Cl)c3)nc2C1 (racemic)
IC50 (COLO 205 [1]; [32]): 0.248 µM
IC50 [2]: 0.0144 µM

Cc1cnc(Nc2ccnn2C)nc1-c1ccc2c(c1)CCN([C@H](CO)c1cccc(Cl)c1)C2=O
IC50 (COLO 205 [1]; [32]): 0.856 µM
IC50 [2]: 0.0092 µM

Cc1cnc(Nc2ccnn2C)nc1-c1cc2n(c1)C(=O)N(Cc1ccc(F)c(F)c1)C2
IC50 (COLO 205 [1]; [32]): 0.293 µM

Cn1nccc1Nc1nccc(N2CCN(C(CO)c3cccc(Cl)c3)C(=O)C2)n1 (racemic)
IC50 (COLO 205 [1]; [32]): > 10 µM
IC50 [2]: 0.24 µM

Cc1cnc(Nc2ccnn2C)nc1-c1cc2n(c1)C(=O)N([C@H](CO)c1ccc(Cl)c(F)c1)C2
IC50 (COLO 205 [1]; [32]): 0.0922 µM
IC50 [2]: 0.0048 µM

Cc1cnc(Nc2ccnn2C)nc1-c1cc2n(c1)C(=O)N([C@H](CO)c1cccc(Cl)c1)C2
Cmax [3]: 0.526 µg/mL
clearance [4]: 0.732 L/h/kg
AUC(0-t) [5]: 3.27 µg·h/mL
Cmax [6]: 9.46 µg/mL
IC50 (COLO 205 [1]; [32]): 0.0446 µM
AUC at 336 h [7]: 21.4 µg·h/mL
bioavailability [8]: 90.8%
clearance [9]: 0.63 L/h/kg
IC50 [10]: 0.0994 µM
AUC(0-t) [11]: 2.46 µg·h/mL
half-life [12]: 2.1 h
bioavailability [13]: 45.8%
Kp at 336 h (in vivo): 1.42
AUC at 336 h [14]: 30.3 µg·h/mL
Cmax [15]: 5.15 µg/mL
half-life [16]: 3.2 h
AUC(0-t) [17]: 0.726 µg·h/mL
inhibition in vivo at 25 mg/kg (COLO 205 [18]): 112%
clearance [19]: 1.52 L/h/kg
bioavailability [20]: 101%
Cmax [21]: 0.219 µg/mL
IC50 [22]: 0.0643 µM
fraction unbound [23]: 0.016

C[C@H](CO)Nc1ncc(Cl)c(-c2cc3n(c2)C(=O)N([C@H](CO)c2cccc(Cl)c2)C3)n1
IC50 (COLO 205 [1]; colo 205): Not Active

CC(C)Nc1cc(-c2c[nH]c(C(=O)N[C@H](CO)c3cccc(Cl)c3)c2)c(Cl)cn1 [ULIXERTINIB]
Kp at 336 h [24]: 0.43
IC50 (COLO 205 [1]; [32]): 0.103 µM
inhibition in vivo at 50 mg/kg (COLO 205 [25]): 63%
Cmax [26]: 32.3 µg/mL
AUC at 336 h [27]: 48.8 µg·h/mL
AUC at 336 h [28]: 114 µg·h/mL
Cmax [29]: 13 µg/mL

Cc1cnc(Nc2ccnn2C)nc1-c1cc2n(c1)C(=O)N([C@H](CO)c1cccc(Cl)c1)CC2
clearance [4]: 3.79 L/h/kg
IC50 (COLO 205 [1]; [32]): 0.0771 µM
bioavailability [8]: 54%
AUC(0-t) [11]: 0.277 µg·h/mL
half-life [12]: 1.6 h
bioavailability [13]: 29.4%
half-life [30]: 0.82 h
AUC(0-t) [17]: 0.258 µg·h/mL
clearance [19]: 2.31 L/h/kg
Cmax [21]: 0.0843 µg/mL
Cmax [31]: 0.275 µg/mL

Cc1cnc(Nc2ccnn2C)nc1-c1cc2n(c1)C(=O)N([C@H](CO)c1ccc(F)c(Cl)c1)C2
IC50 (COLO 205 [1]; [32]): 0.0949 µM
IC50 [2]: 0.0095 µM

CNC[C@H](c1cccc(Cl)c1)N1Cc2cc(-c3nc(Nc4ccnn4C)ncc3C)cn2C1=O
IC50 (COLO 205 [1]; [32]): 0.0945 µM
IC50 [2]: 0.0015 µM

Cc1cnc(NC(C)C)nc1-c1cc2n(c1)C(=O)N([C@H](CO)c1cccc(Cl)c1)C2
IC50 (COLO 205 [1]; colo 205): Not Active
IC50 [2]: 0.188 µM

Cc1cnc(Nc2ccnn2C)nc1N1Cc2nn(C(CO)c3cccc(Cl)c3)c(C)c2C1 (racemic)
IC50 (COLO 205 [1]; [32]): 0.964 µM
IC50 [2]: 0.099 µM

COc1cc(F)cc([C@@H](CO)N2Cc3cc(-c4nc(Nc5ccnn5C)ncc4C)cn3C2=O)c1
IC50 (COLO 205 [1]; [32]): 0.0896 µM
IC50 [2]: 0.0024 µM

— ChEMBL document CHEMBL5046322, “Discovery of SHR2415, a Novel Pyrrole-Fused Urea Scaffold ERK1/2 Inhibitor” (ACS Med Chem Lett, 2022)
